Consider four compounds from US20220193006A1, “COMPOSITIONS FOR EFFECTIVE MANAGEMENT OF FIBROBLAST-LIKE SYNOVIOCYTES MEDIATED RHEUMATOID ARTHRITIS” (priority 2020, published 2022).

Assay [1] relates to Th17 and Treg cells in spleen. The assay can be described thus: Treg and Th17 analysis in spleen (flow cytometry). The following applies: spleen of CIA rats; celecoxib control; RA control at 3.5; FIG. 35. The format is in vivo, rat. The method, then:
Spleen was obtained from collagen induced arthritis rats under sterile conditions for the lymphocyte isolation. The spleen was washed twice with PBS containing 100 μg/ml streptomycin and 100 U/ml penicillin and cut into small pieces with microsurgery scissors, homogenized with plunger end of the syringe and filtered using a 100 μm mesh strainer. The filtrate was centrifuged for 5 min at 1200 rpm, washed 1-2 times with PBS, after which 1×10^6 cells/ml were suspended in RPMI media supplemented with 10% FBS. The imbalance is effected by reducing Th17 cells and increasing T-cell (Treg) (FIGS. 33-35) with the ratio of Th17/Treg preferably as 1, or more preferably between 0-1 compared to RA control at 3.5 (FIG. 35).
After the stimulation, cells were collected and 2×10^5 cells were aliquoted into different tubes for evaluating Th17 and Treg population. The antibody dilutions used for the analysis were as recommended by the respective manufacturer. To evaluate Th17 population, cells were initially stained with FITC Mouse Anti-Rat CD3 (559975, BD pharmingen) and APC Mouse Anti-Rat CD4 (550057, BD pharmingen) antibodies. […] FCM was performed on a BD FACSCelesta system (BD Biosciences, Franklin Lakes, N.J., USA) and analyzed using FlowJo software.

Assay [2] deals with collagen-induced arthritis (CIA). The assay can be described thus: Collagen-induced arthritis study, arthritic score. The format is in vivo, rat. The conditions noted are these: positive control, 10 mg/kg; RA control is 3.5; scale 0-4; FIG. 32. An excerpt:
The […] (Table 4) collagen-induced arthritis (CIA) is a widely studied autoimmune model of rheumatoid arthritis. In this model, autoimmune arthritis is induced by immunization with type II collagen (CII) emulsified in complete Freund's adjuvant. These animals develop an autoimmune-mediated polyarthritis that shares several clinical, histological, and immunological features with the human autoimmune disease rheumatoid arthritis. The immune response to CII is characterized by both the stimulation of collagen-specific T cells and the production of high titers of antibody specific for both the immunogen (heterologous CII) and the autoantigen (mouse or rat CII).
Arthritis induced by administering type-2 collagen (chicken sternal cartilage, Sigma catalog no: C9301) which will be emulsified with incomplete Freund's adjuvant (FIA) at 1:1 ratio. On Day 0, Rats were intradermally injected with 200 μL (200 μg/animal) of collagen-FIA emulsion at the base of the tail (First Immunization). For booster injection the emulsion was prepared same as above and injected with 100 μL (100 μg/animal) of collagen-FIA emulsion given on day 7. Test sample administered from day 0 to day 20. […]

For assay [3], the system named is MMP-3. Description: Inflammatory markers, RT-PCR expression study in TNF-α induced FLS. The format is cell-based. The conditions noted are these: sample 10 μg/mL; FLS induced with 10 ng/ml rat TNF-α, 6 hrs; Control = 1, Induced 5.14. How it is done: (§1) FLS cells (8×10^4 cells/well) were seeded in 24-well plates and incubated overnight at 37° C. under 5% CO2. […] RT-PCR expression study: After 6 hrs of incubation, total cellular RNA from untreated and treated cells were isolated using Trizol Reagent® (Ambion, Life Technologies), according to the manufacturer's instructions, followed by RNase-free DNase I treatment (ThermoFisher Scientific) to remove any genomic DNA. Messenger RNA quality and concentration were analyzed spectrophotometrically (NanoDrop Lite, ThermoFisher Scientific). One microgram of total RNA was reverse transcribed into cDNA using Revert-aid First Strand cDNA synthesis kit (ThermoFisher Scientific), according to the manufacturer's instructions, and stored at −80° C. until use. Then 20 μl of the reaction mixture was subjected to PCR using SYBR green qPCR master mix for amplification of cDNAs using specifically designed primers procured from Eurofins India, as an internal control, the house keeping gene § actin was co-amplified with each reaction (Table 2). PCR was carried out in Light cycler 96 (Roche Life Science) and PCR conditions for genes were initial denaturation at 95° C. for 10 min followed by 35 cycles consisting of denaturation at 95° C. for 30 seconds, annealing of primers at 60° C. for 30 seconds, extension at 72° C. for 30 seconds and final cooling at 72° C. for 30 seconds (Table 1).

For assay [4], the system named is CCL-5. The description is as above. Type of assay: cell-based. The following applies: sample 10 μg/mL; FLS induced with 10 ng/ml rat TNF-α, 6 hrs; Control = 1, Induced 7.16. How it is done: as §1
The subject of assay [5] is Cathepsin. Described as above. Type of assay: cell-based. The following applies: sample 10 μg/mL; FLS induced with 10 ng/ml rat TNF-α, 6 hrs; Control = 1, Induced 3.86. How it is done:
as §1

The subject of assay [6] is IFN-γ. The description is as above. Type of assay: cell-based. The conditions noted are these: sample 10 μg/mL; FLS induced with 10 ng/ml rat TNF-α, 6 hrs; Control = 1, Induced 5.7. How it is done: as §1
The test system of assay [7] is TNF-α. Described as above. Type of assay: cell-based. The following applies: sample 10 μg/mL; FLS induced with 10 ng/ml rat TNF-α, 6 hrs; Control = 1, Induced 7.93. How it is done: as §1
For assay [8], the system named is Bax/Bcl-2. The assay can be described thus: Apoptosis analysis, Bax/Bcl-2 RT-PCR expression in FLS. Type of assay: cell-based, rat. The conditions noted are these: 24 h treatment; compared to the control; FIG. 19.
Description: FLS apoptosis was assessed with RT-PCR expression study. In short, FLS cells (8×10^4 cells/well) were seeded in 24-well plates and incubated overnight at 37° C. under 5% CO2. After synchronization in serum-free medium for 24 h, cells were treated with or without the presence of samples in DMEM 10% FBS for 24 h. After the treatment period, the cells were collected, total cellular RNA was isolated and processed for RT-PCR analysis (Table 3) as mentioned before.
Assay [9] deals with Fibroblast-like synoviocytes (FLS). The assay can be described thus: WST-1 proliferation assay. The conditions noted are these: 20 μg/mL, 72 hours; FIG. 5. The format is cell-based, rat. A general note: Tetrazolium dyes change colour on reduction, which living cells bring about.
Description: FLS were isolated from synovial tissues by enzymatic digestion. In short, the tissues were separated into 1-mm^3 blocks with microsurgery scissors. After which the tissues were incubated with 0.1% collagenase type II enzyme in DMEM supplemented with 10% FBS for enzymatic digestion at 37° C. for 45 min in an orbital shaker incubator (200 rpm).
After the incubation time, the tubes were vortexed vigorously for 1-2 min to release the cells and filtered using a 100 μm mesh strainer. The filtrate was centrifuged for 5 min at 1200 rpm, the cells were resuspended in DMEM supplemented with 10% FBS and 100 μg/ml streptomycin and 100 U/ml penicillin and cultured in a humidified incubator at 37° C. under 5% CO2.
WST-1 assay was used to measure the effect of different samples on FLS proliferation. FLS were seeded in 96-well plates at a density of 5×10^3 cells/well and incubated overnight at 37° C. under 5% CO2. After the treatment period, 100 μl WST-1 reagent (5015944001, Sigma, USA) diluted 1:10 in serum-free DMEM culture media was added to each well, and incubated at 37° C. under 5% CO2 for 2 h. The absorbance was measured at 450 nm with a reference wavelength of 610 nm.

Consider `Cc1ccc(-c2cc(C(F)(F)F)nn2-c2ccc(S(N)(=O)=O)cc2)cc1` [celecoxib], for which the “ratio of Th17/Treg” value in [1] stood at 0.5. In [2], the arthritis score came out at 1.

As to `COc1cc(/C=C/C(O)=C/C(=O)/C=C/c2ccc(O)cc2)ccc1O` [DMC, demethoxycurcumin], in assay [3], the “MMP-3 (inflammatory marker expression)” value was 4.91 ± 0.41. Besides, in [4], the “CCL-5 (inflammatory marker expression)” value was 7.03 ± 3.03. In addition, the “Cathepsin (inflammatory marker expression)” value (“Cathepsin” below) in [5] is 3.69 ± 0.14. Further, the “IFN-γ (inflammatory marker expression)” value in [6] is 4.43 ± 0.15. In addition, the “TNF-α (inflammatory marker expression)” value in assay [7] was found to be 3.57 ± 1.77.

For `O=C(/C=C/c1ccc(O)cc1)CC(=O)/C=C/c1ccc(O)cc1` [BDMC, bisdemethoxycurcumin], the “MMP-3 (inflammatory marker expression)” value in assay [3] is on record as 6.07 ± 0.05. Further, the “CCL-5 (inflammatory marker expression)” value in assay [4] stood at 4.07 ± 0.05. Besides, in assay [5], the “Cathepsin” value was found to be 3.36 ± 0.37. Further, the “IFN-γ (inflammatory marker expression)” value in assay [6] was found to be 4.57 ± 0.11. In addition, the “TNF-α (inflammatory marker expression)” value in assay [7] is 3.20 ± 2.1.

`COc1cc(/C=C/C(=O)CC(=O)/C=C/c2ccc(O)c(OC)c2)ccc1O` [Curcumin, curcumin]: the “Bax/Bcl-2 ratio (pro-apoptosis), ranking” value in assay [8] was “BDMC>DMC>curcumin”. Moreover, the “MMP-3 (inflammatory marker expression)” value in assay [3] was found to be 3.98 ± 0.48. Moreover, the “CCL-5 (inflammatory marker expression)” value in [4] stood at 3.01 ± 0.04. Besides, in [5], the “Cathepsin” value stood at 2.70 ± 0.14. For the same compound, the “IFN-γ (inflammatory marker expression)” value in assay [6] came out at 2.7 ± 0.19. In addition, the “TNF-α (inflammatory marker expression)” value in assay [7] is 3.93 ± 0.84. The “inhibition of FLS proliferation, trend among curcuminoid analogues” value in assay [9] was “BDMC>curcumin>DMC”.
